The record followed here is patent publication US4366311A, “Novel dianemycin derivative” (Taisho Pharmaceutical Co., Ltd., priority 1980, dated 1982).

Each structure is given as a SMILES string. Where a name gives a salt, the structure may show the parent alone.

In one series the test system is toxoplasma RH strain. Nature of the series: Anti-toxoplasma effect in cultivated mouse macrophage (Test Example 1). It counts as cell-based, in macrophage of normal ICR mice. The following applies: 0.1 ppm compound in medium, 37° C., 48 hours. The method, then:
(§1) Normal ICR mice were intraperitoneally injected with 1 ml of a sterilized 0.2% solution of glycogen in saline solution and, after 5 days, intraperitoneally injected with 5 ml of a Hank's solution containing heparin to collect macrophage.
(§2) After centrifugation and washing, the macrophage was diluted with a medium of TC-199 containing 20% of calf serum so that the resulting solution contained about 10^6 cells/ml of macrophage. 1 ml of this suspension was pipetted into a cultivation Petri dish containing circular cover glass of 1.5 cm in diameter, followed by cultivation for 24 hours in an incubator containing 5% of carbon dioxide.
(§3) 5×10^5 toxiplasma RH strain collected on the 2nd day after intraperitoneal infection of mice were brought into contact with the thus cultivated macrophage at 37° C. for about 1 hour, and non-infectingtoxiplasma RH strain were washed away using the same medium followed by adding thereto the same medium.
(§4) A drug-containing group was prepared by adding compound I sodium salt to the medium so that the final concentration of the compound became 0.1 ppm.
(§5) Medical effects were evaluated as follows; After cultivation at 37° C. for 48 hours, May-Grunwald/Giemsa double straining was conducted to determine the percentage of macrophage cells containing therein 1 to 5 toxoplasma or 6 or more toxoplasma, thus the infected control group was compared with the drug-added group.

Another series deals with macrophage. Nature of the series: Cytotoxic effect on macrophage, observation under an optical microscope. It counts as cell-based, ICR mice. The note with it: 0.1 ppm compound in medium. The procedure:
as §1, §2, §3, §4, §5

Series [1] deals with Bacillus subtilis ATCC 6633. Nature of the series: MIC, antibacterial effects (Test Example 2). The note with it: ATCC6633, infusion agar medium, read-out: MIC (Minimum Inhibitory Concentration). It counts as cell-based. The method, then: (§6) MIC (Minimum Inhibitory Concentration) was measured according to the method specified by the Chemotherapeutic Society using a heat infusion agar medium containing compound I sodium salt, to examine antibacterial effects of the compound.

In series [2] the test system is Escherichia coli NIHJ C-2. Nature of the series: MIC, antibacterial effects (Test Example 2). The series is classed as cell-based. The following applies: NIHJC2, infusion agar medium, read-out: MIC (Minimum Inhibitory Concentration). The procedure:
as §6

Series [3] has as its system Staphylococcus epidermidis TPR-25. Nature of the series: MIC, antibacterial effects (Test Example 2). The series is classed as cell-based. The note with it: TPR25, infusion agar medium, read-out: MIC (Minimum Inhibitory Concentration). The method, then:
as §6

Series [4] deals with Staphylococcus aureus TPR-23. Nature of the series: MIC, antibacterial effects (Test Example 2). The series is classed as cell-based. The note with it: TPR23, infusion agar medium, read-out: MIC (Minimum Inhibitory Concentration). The procedure: as §6
The subject of series [5] is Streptococcus faecalis ATCC 8043. Nature of the series: MIC, antibacterial effects (Test Example 2). It counts as cell-based. The note with it: Enterococcus faecalis, ATCC8043, infusion agar medium, read-out: MIC (Minimum Inhibitory Concentration). The method, then:
as §6

For series [6], the system named is Staphylococcus aureus FDA 209 P. Nature of the series: MIC, antibacterial effects (Test Example 2). It counts as cell-based. The following applies: FDA209, infusion agar medium, read-out: MIC (Minimum Inhibitory Concentration). The method, then: as §6
The subject of series [7] is Staphylococcus aureus Smith. Nature of the series: MIC, antibacterial effects (Test Example 2). It counts as cell-based. The note with it: infusion agar medium, read-out: MIC (Minimum Inhibitory Concentration). The procedure: as §6
In the next series the test system is Bacillus licheniformis. Nature of the series: MIC, antibacterial effects (Test Example 2). The series is classed as cell-based. The following applies: infusion agar medium, read-out: MIC (Minimum Inhibitory Concentration). The method, then: as §6
Series [8] concerns Staphylococcus epidermidis IID 866. Nature of the series: MIC, antibacterial effects (Test Example 2). The series is classed as cell-based. The note with it: IID866, infusion agar medium, read-out: MIC (Minimum Inhibitory Concentration). The method, then:
as §6

The nature of series [9]: Acute toxicity, LD50 in mice (Test Example 3). The arrangement: species or system mice (ddY strain, 4-week old). The following applies: mouse, in vivo, ip; ddY male mice, intraperitoneal, mortality over 7 consecutive days; 5% gum arabic in saline. The method, then:
Compound I sodium salt and the control drug of dianemycin sodium salt were respectively suspended in a 5% solution of gum arabic in saline solution.
Two groups of 7 ddY strain male mice (4-week old) were intraperitoneally injected with each of the above-described drug suspension. LD50 values (mg/kg) of the compounds were determined from the total mortality per group for 7 consecutive days to examine the acute toxicity.

In the case of `C/C(=C\C(C)C1OC2(CCC(C)(C3CC(O)C(C)C4(OC(C5OC(O)(CO)C(C)CC5C)CC4C)O3)O2)CC(O)C1C)C(=O)C(C)CC(C)C(=O)O` (centres unmarked) [Compound I sodium salt], the “Percentage of Toxoplasma-infected Macrophage, 1 to 5 Toxoplasma/cell” value with toxoplasma RH strain (infected control group 30.8) amounted to 0%. Also, the “Percentage of Toxoplasma-infected Macrophage, 6 or more Toxoplasma/cell” value with toxoplasma RH strain (infected control group 31.8) was 0%. Moreover, in the series on macrophage, the cytotoxic effect result was “no cytotoxic effect”. Further, the MIC in [1] was 25 µg/mL; in [2], > 200 µg/mL; in series [3], 50 µg/mL; in [4] it was 50 µg/mL; in [5] it was 50 µg/mL; in series [6], 25 µg/mL. In addition, the MIC is 50 µg/mL in series [7], 12.5 µg/mL in the series with Bacillus licheniformis and 50 µg/mL in [8]. Also, the LD50 – broadly, the dose expected to kill half of the subjects tested – at 168 h in [9] turned out to be 191 mg/kg.
Compound `COC1CCC(OC2CC(C3(C)CCC4(CC(O)C(C)C(C(C)/C=C(\C)C(=O)C(C)CC(C)C(=O)O)O4)O3)OC3(OC(C4OC(O)(CO)C(C)CC4C)CC3C)C2C)OC1C` (centres unmarked) [Dianemycin Sodium Salt, reference compound] had an LD50 at 168 h in series [9] of 7.2 mg/kg.
